Experiments:
[1] = system: C17.2 clonal lines; assay: Baseline proliferation of clonal lines after extended factor treatment in serum-free medium; type: cell-based, mouse; settings: after extended treatment with the factor in serum-free medium; most clonal lines
Description: C17.2 neural stem cells (Snyder, E. Y. et al. Cell 68, 33-51 (1992)) were maintained and passaged as previously described (Snyder, E. Y. et al. Cell 68, 33-51 (1992)). Ventral mesencephala from E16 rat embryos were dissected, mechanically dissociated and plated at a final density of 1×10^5 cells/cm^2 on poly-D-lysine coated culture wells in a defined, serum-free medium (N^2, consisting of a 1:1 mixture of F12 and DMEM containing insulin (10 ng/ml), transferrin (100 μg/ml), putrescine (100 μM), progesterone (20 nM), selenium (30 nM) glucose (6 mg/ml), and bovine serum albumin (1 mg/ml)). After 24 hours in vitro, co-cultures were initiated by directly plating 2.5−5×10^4 C17.2-derived cells into the primary cultures; all ages of cultures given use this point as 0 DIV. […] Purified Type 1 astrocytes were obtained from mixed glial cultures derived from various regions of P1 rats according to a standard protocol (McCarthy, K. D. et al. J. Cell Biol. 85, 890-902 (1980)). After replating into 6- or 12-well plates, astrocytes were grown to confluency in serum-containing media and changed to N2 medium. After 3-5 DIV, co-cultures were initiated in fresh N2 as described above. All factors were added once, at the initiation of co-culture (concentrations are noted in the Results and Discussion), with the exception of 5-bromodeoxyuridine (BrdU), which was added 4-6 hours prior to fixation. […]

[2] = system: Nurr1 over-expressing C17.2 clones; assay: Treatment of Nurr1 clones with trophic factors, mitogens, cytokines and other agents; TH immunoreactivity; type: cell-based, mouse; settings: Nurr1 clones without co-culture; factors alone or combined
Excerpt: C17.2 cells were cotransfected with a CMX-Nurr1 expression vector (Perlmann, T. et al. Genes Dev. 9, 769-782 (1995)) and PGK-puromycin resistance plasmids (Nurr1 clones) or a PGK-puromycin alone (mock clones). For reporter assays, C17.2 parental cells were transfected with the Nurr1 expression vector, the reporter plasmid (NGFIB-binding response element (NBRE) triplet upstream of TK minimal promoter fused to firefly luciferase) and a pRSV-alkaline phosphatase plasmid at a 2:1:2 ratio.
C17.2 neural stem cells (Snyder, E. Y. et al. Cell 68, 33-51 (1992)) were maintained and passaged as previously described (Snyder, E. Y. et al. Cell 68, 33-51 (1992)). Ventral mesencephala from E16 rat embryos were dissected, mechanically dissociated and plated at a final density of 1×10^5 cells/cm^2 on poly-D-lysine coated culture wells in a defined, serum-free medium (N^2, consisting of a 1:1 mixture of F12 and DMEM containing insulin (10 ng/ml), transferrin (100 μg/ml), putrescine (100 μM), progesterone (20 nM), selenium (30 nM) glucose (6 mg/ml), and bovine serum albumin (1 mg/ml)). After 24 hours in vitro, co-cultures were initiated by directly plating 2.5−5×10^4 C17.2-derived cells into the primary cultures; all ages of cultures given use this point as 0 DIV. […] Purified Type 1 astrocytes were obtained from mixed glial cultures derived from various regions of P1 rats according to a standard protocol (McCarthy, K. D. et al. J. Cell Biol. 85, 890-902 (1980)). After replating into 6- or 12-well plates, astrocytes were grown to confluency in serum-containing media and changed to N2 medium. After 3-5 DIV, co-cultures were initiated in fresh N2 as described above. All factors were added once, at the initiation of co-culture (concentrations are noted in the Results and Discussion), with the exception of 5-bromodeoxyuridine (BrdU), which was added 4-6 hours prior to fixation. Cultures were maintained in a humidified 5% CO2, 95% air incubator at 37 C and fixed after given time periods with 4% paraformaldehyde for 45 minutes for immunocytochemical analysis.
Fixed cultures were incubated with one of the following antibodies, diluted appropriately in phosphate-buffered saline (PBS) containing 1% bovine serum albumin and 0.3% Triton-X 100: mouse anti-BrdU, 1:50 (DAKO, Denmark), mouse anti-β-tubulin, Type III (TuJ1), 1:250 (Sigma), mouse anti-TH, 1:1000 (Incstar, USA), rabbit anti-β-galactosidase, 1:250 (Cappel, USA) rabbit anti-GFAP, 1:500 (DAKO, Denmark), rabbit anti-AHD-2, 1:4000. Incubations were either carried out at 4° C. overnight, or at room temperature for 1 hour. […] After washing, cultures were incubated for 1-3 hr with appropriate secondary antibodies (biotinylated horse-anti-mouse IgG or goat-anti-rabbit IgG, Vector, USA), 1:100, in the same dilution buffer. Immunostaining was visualized with the Vector Laboratory ABC immunoperoxidase kit, using either AEC (red) or SG (grey) substrates. […] Quantitative immunocytochemical data represent means and standard errors from 100-500 cells counted in each of 3-6 separate wells from 2-4 experiments. For quantitation of TH expression in co-cultures of primary and C-17.2-derived cells, TH was visualized with the brightfield AEC substrate, while β-gal was assessed using FITC, thus all data expressed as “% TH+” represents the number of TH+/β-gal+divided by total β-gal positive cells.

[3] = system: Nurr1-C17.2 clone 42; assay: Co-culture of Nurr1-C17.2 clone 42 with primary E16 ventral mesencephalic cells; TH expression; type: cell-based, mouse; settings: clone 42 with primary VM cells
Description: (§1) C17.2 neural stem cells (Snyder, E. Y. et al. Cell 68, 33-51 (1992)) were maintained and passaged as previously described (Snyder, E. Y. et al. Cell 68, 33-51 (1992)). Ventral mesencephala from E16 rat embryos were dissected, mechanically dissociated and plated at a final density of 1×10^5 cells/cm^2 on poly-D-lysine coated culture wells in a defined, serum-free medium (N^2, consisting of a 1:1 mixture of F12 and DMEM containing insulin (10 ng/ml), transferrin (100 μg/ml), putrescine (100 μM), progesterone (20 nM), selenium (30 nM) glucose (6 mg/ml), and bovine serum albumin (1 mg/ml)). After 24 hours in vitro, co-cultures were initiated by directly plating 2.5−5×10^4 C17.2-derived cells into the primary cultures; all ages of cultures given use this point as 0 DIV. […]
(§2) Fixed cultures were incubated with one of the following antibodies, diluted appropriately in phosphate-buffered saline (PBS) containing 1% bovine serum albumin and 0.3% Triton-X 100: mouse anti-BrdU, 1:50 (DAKO, Denmark), mouse anti-β-tubulin, Type III (TuJ1), 1:250 (Sigma), mouse anti-TH, 1:1000 (Incstar, USA), rabbit anti-β-galactosidase, 1:250 (Cappel, USA) rabbit anti-GFAP, 1:500 (DAKO, Denmark), rabbit anti-AHD-2, 1:4000. […] Quantitative immunocytochemical data represent means and standard errors from 100-500 cells counted in each of 3-6 separate wells from 2-4 experiments. […]

[4] = system: C17.2 cells; settings: Kitchens et al. 1994; cited from earlier work
[5] = system: parental C17.2 cells; assay: Co-culture of parental C17.2 cells with primary E16 ventral mesencephalic cells; TH expression; type: cell-based, mouse; settings: parental C17.2 cells in co-culture; SR11237 to 1 μM, bFGF to 10 ng/ml
Description: as §1, §2

[6] = system: RXR retinoid receptors; settings: Lehmann et al. 1992; cited from earlier work
[7] = system: Nurr1 clones; assay: bFGF pretreatment of Nurr1 clones before co-culture with primary ventral mesencephalic cultures; BrdU labeling and TH expression; type: cell-based, mouse; settings: bFGF pretreatment 5 DIV
Description: as §1, §2

[8] = system: Nurr1-c42-derived dopaminergic neurons; assay: Response of TH positive c42 cells in co-culture to neurotrophic factors; type: cell-based, mouse; settings: 9 DIV, after SR11237 and bFGF induction; compared to N2 control; NT-3 30 ng/ml
Description: as §1, §2

In the case of “EGF: epidermal growth factor, mitogen (NSDSECPLSHDGYCLHDGVCMYIEALDKYACNCVVGYIGERCQYRDLKWWELR; Epidermal growth factor; UniProt P01133 971-1023, looked up)”, the “baseline proliferation after passage into SFM alone” value [1] is reported as “remained unexpectedly elevated”, the “induction of TH expression” value [2] is reported as “None of these factors induced TH expression in any of the clones” and the “effect on TH expression in co-culture (in words)” value [3] is reported as “effects of bFGF could be substituted by EGF”. The mitogenic effect [4] was “directly mitogenic”.

In the case of `CC1(C)CCC(C)(C)c2cc(C3(c4ccc(C(=O)O)cc4)OCCO3)ccc21` [SR11237, reference compound], the “induction of TH expression” value [5] is listed as “did not induce expression of TH” and the “stimulation of RXR retinoid receptors” value [6] is listed as “specifically stimulates RXR retinoid receptors”.

With sonic hedgehog the “induction of TH expression” value [2] was “None of these factors induced TH expression in any of the clones”.

With insulin-like growth factor the “induction of TH expression” value [2] was “None of these factors induced TH expression in any of the clones”.

For `NCCc1ccc(O)c(O)c1` [dopamine], the “induction of TH expression” value [2] was “None of these factors induced TH expression in any of the clones”.

With `CC1=C(/C=C/C(C)=C/C=C/C(C)=C/C(=O)O)C(C)(C)CCC1` [all-trans retinoic acid, reference compound] the “effect on TH expression in co-culture (in words)” value [3] was “without effect”.

With “bFGF: basic fibroblast growth factor, mitogen” the “baseline proliferation after passage into SFM alone” value [1] was “remained unexpectedly elevated”, the “induction of TH expression” value [5] was “did not induce expression of TH” and the “% TH+ cells after co-culture” value ([7]; co-culture 9 DIV, highest value, clone 42) was at most 45%. For the same molecule, the “BrdU labeling of pretreated Nurr1 clones” value ([7]; 24 hours after passage into co-culture, versus cells split directly out of serum-containing medium) was “increased”, the “number of TH+ cells in the culture” value [8] was “dramatically increased the number of TH+ cells” and the “induction of TH expression” value [2] was “None of these factors induced TH expression in any of the clones”. The mitogenic effect [4] was “directly mitogenic”.

— US7465582B1, “Nurr-1 induction of a dopaminergic neuronal fate in a neural stem cell or neural progenitor cell in vitro” (Neuro Therapeutics AB, priority 2000, dated 2008)
